Assay results: EP0452101B1, “Spiro bridged and unbridged heterocyclic compounds” (ISRAEL INSTITUTE FOR BIOLOGICAL RESEARCH, priority 1990, dated 1991)
Where two headings read alike, the source gives them in different places.

Tests used:
M2 muscarinic receptors = target: T1, M2 muscarinic receptors (Rattus norvegicus, UniProt P10980); test: Displacement of 3H-QNB from rat cerebellum, 50 mM phosphate buffer; type: binding; conditions: for Ki / % H / %L / % H2 / % L2: cerebellum; for RATIOS d:c: KL2 : KH2 cerebellum (3H-QNB)
T1 construct: displacing from rat brain homogenates, cerebellum or frontal cortex; from tissue; host or cells: rat cerebellum homogenates
T1 sequence (P10980 1-466): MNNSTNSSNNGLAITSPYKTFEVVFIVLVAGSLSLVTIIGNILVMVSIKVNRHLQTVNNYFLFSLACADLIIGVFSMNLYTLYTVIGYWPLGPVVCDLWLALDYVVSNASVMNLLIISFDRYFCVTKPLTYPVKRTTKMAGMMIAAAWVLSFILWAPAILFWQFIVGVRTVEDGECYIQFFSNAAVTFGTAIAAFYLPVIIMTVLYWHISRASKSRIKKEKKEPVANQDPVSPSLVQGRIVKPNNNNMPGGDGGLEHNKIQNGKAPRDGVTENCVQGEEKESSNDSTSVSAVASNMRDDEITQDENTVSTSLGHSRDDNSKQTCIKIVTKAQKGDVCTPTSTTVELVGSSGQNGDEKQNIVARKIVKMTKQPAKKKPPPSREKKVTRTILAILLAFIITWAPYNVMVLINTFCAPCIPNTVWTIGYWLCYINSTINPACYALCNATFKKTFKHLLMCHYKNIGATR

M1 muscarinic receptor [1] = target: T2, M1 muscarinic receptor (Rattus norvegicus, UniProt P08482); test: Displacement of 3H-QNB from rat cerebral cortex, 50 mM phosphate buffer; type: binding; conditions: for RATIOS c:a: KH2 cerebellum : KH1 cortex (3H-QNB); for RATIOS b:a: KL1 : KH1 cortex (3H-QNB); for RATIOS d:b: KL2 cerebellum : KL1 cortex (3H-QNB); for % H1 / % L1: cortex, Table 5
T2 sequence (P08482 1-460): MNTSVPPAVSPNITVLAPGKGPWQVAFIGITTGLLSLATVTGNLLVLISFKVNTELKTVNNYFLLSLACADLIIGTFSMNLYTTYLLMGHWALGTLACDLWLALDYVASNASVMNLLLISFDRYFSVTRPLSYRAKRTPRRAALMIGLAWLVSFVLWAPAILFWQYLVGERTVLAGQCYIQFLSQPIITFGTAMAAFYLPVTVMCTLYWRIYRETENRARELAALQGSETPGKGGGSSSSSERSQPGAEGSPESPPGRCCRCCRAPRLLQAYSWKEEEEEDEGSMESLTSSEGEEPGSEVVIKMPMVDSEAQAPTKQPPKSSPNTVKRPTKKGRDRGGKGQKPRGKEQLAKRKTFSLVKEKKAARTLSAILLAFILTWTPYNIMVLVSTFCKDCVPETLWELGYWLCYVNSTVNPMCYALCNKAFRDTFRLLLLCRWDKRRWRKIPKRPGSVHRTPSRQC

[2] = target: T3, m3 subtype (SK-N-SH cells) (Homo sapiens, UniProt P20309); test: PI hydrolysis in SK-N-SH neuroblastoma cells; type: cell-based
T3 construct: endogenous in cells; host or cells: SK-N-SH human neuroblastoma cells
T3 sequence (P20309 whole entry): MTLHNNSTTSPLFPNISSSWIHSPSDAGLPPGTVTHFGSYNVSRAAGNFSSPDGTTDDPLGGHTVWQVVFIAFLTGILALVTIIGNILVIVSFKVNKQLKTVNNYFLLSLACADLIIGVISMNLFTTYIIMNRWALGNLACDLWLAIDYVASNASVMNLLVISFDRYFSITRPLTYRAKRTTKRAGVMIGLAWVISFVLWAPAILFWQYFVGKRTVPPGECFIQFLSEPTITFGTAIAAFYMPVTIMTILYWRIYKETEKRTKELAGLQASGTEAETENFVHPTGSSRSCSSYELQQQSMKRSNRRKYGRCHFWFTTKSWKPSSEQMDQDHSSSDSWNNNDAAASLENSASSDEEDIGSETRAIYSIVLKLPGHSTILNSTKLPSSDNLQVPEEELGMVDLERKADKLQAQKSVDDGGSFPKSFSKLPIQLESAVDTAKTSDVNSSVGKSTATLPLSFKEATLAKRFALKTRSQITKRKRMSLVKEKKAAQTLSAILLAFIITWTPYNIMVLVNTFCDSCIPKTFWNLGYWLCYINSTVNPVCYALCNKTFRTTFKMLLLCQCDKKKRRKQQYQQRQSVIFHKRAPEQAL
Protocol: (§1) The new compounds AF150, AF151, AF150(S) and AF125 were assayed for their ability to stimulate PI in CHO cells transfected with m1 and m3 receptors, respectively (Buck and Fraser, loc cit), and in cultured human neuroblastoma cells, line SK-N-SH, which express mainly the m3 subtype, but not the m1 subtype (Pinkas-Kramarski et al, Neurosci. Lett. 188: 335-340, 1990; Luthin et al Mol. Pharmacol. 34: 327-333, 1988). These compounds were also assayed on cultured PC12 cells which express mainly m4 subtype receptors and are coupled to inhibition of AC activity (Pinkas-Kramarski et al, loc cit).
(§2) Stimulation of PI breakdown was assayed using the method described by Stein et al (EMBO J. 7: 3031-3035, 1988), and modulation of AC activity was assayed by the method of Stein et al, loc cit and Pinkas-Kramarski et al (FEBS Lett., 239: 174-178, 1988). […]

M1 muscarinic receptor [3] = target: T2, M1 muscarinic receptor; test: Displacement of 3H-PZ from cortical binding sites, Tris/Mn buffer, with and without GppNHp; design: from tissue; host or cells: rat cerebral cortex homogenates
Text: The binding of agonists to M1 muscarinic receptors and the effect of guanylyl imidophosphate (GppNHp). Agonists are known to be coupled with guanine nucleotide binding proteins (G proteins).
Non-hydrolyzable guanine nucleotides such as GppNHp dissociate the G protein from the receptor and decrease the affinity of the receptor for agonists but not for antagonists. […] Molec.
Under these conditions agonists of high efficacy ("full agonists") bind directly to the M1 receptor subtype with two affinities. […] The ratio of low and high affinities (KL/KH) of the M1 receptor may predict the relative efficacies of agonists to activate putative M1 receptor-mediated second messenger systems.
KH, KL, %H and %L are the apparent inhibition constants of the tested ligands for the high and low affinity sites, respectively. G is GppNHp (guanylyl imidodiphosphate), and was used in 0.1 mM concentration. Displacement of ^3H-PZ from cortical binding sites was performed in Tris/Mn buffer (pH 7.4) for one hour at 25°C; the buffer included 1 mM EDTA and 2mM Mn^++ ions. […] The binding data were analyzed using a GraphPAD program and were fitted to one or two components. Values are means from 1-3 experiments carried out in triplicates.

M1 muscarinic receptor [4] = target: T2, M1 muscarinic receptor; test: Displacement of 3H-PZ from rat cerebral cortex, 10 mM phosphate buffer; type: binding; design: from tissue; host or cells: rat cerebral cortex homogenates; conditions: for RATIOS c:a: KH cerebellum (3H-QNB) : KH cortex (3H-PZ)
m1 receptors = target: T4, m1 receptors (Rattus norvegicus, UniProt P08482); test: PI hydrolysis in CHO cells transfected with m1 receptors; type: cell-based; conditions: CHO m1
T4 construct: expressed in transfected cells; host or cells: CHO cells
T4 sequence (P08482 1-460): T2 sequence (P08482 1-460)

muscarinic receptors = test: (-)3H-QNB binding to rat cerebral cortex homogenates with and without Cu++ treatment
[5] = tested on: rat cerebral cortex synaptosomes; test: Synaptosomal 3H-ACh release, basal and K+-evoked; conditions: 0.1 mM
Text: The effects of AF150 (and for comparison purposes, AF125, MeN-A-343 and oxotremorine) on basal- and K^+-evoked release of ^3H-ACh were studied on synaptosomes prepared from rat cerebral cortex using the methods described in detail by Pittel et al (J. Neurochem., 55: 665-672, 1990). […] On the other hand, the action of AF150 on presynaptic muscarinic receptors, causing an increase in K^+-evoked ACh release, can be considered either as an M2 antagonistic or an M1 agonistic effect. […] The existence of muscarinic autoreceptors that increase ACh release was manifested also in the PNS in smooth muscle preparation (Kilbinger and Nafziger, Naunyn Schmiedebergs Arch. Pharmacol. 328: 304-309, 1985).

[6] = target: T5, m4 subtype receptors (PC12 cells) (Rattus norvegicus, UniProt P08485); test: Inhibition of adenylate cyclase activity in PC12 cells; type: cell-based; conditions: PC12 m4; tested at 1mM
T5 construct: endogenous in cells; host or cells: PC12 cells
T5 sequence (P08485 1-478): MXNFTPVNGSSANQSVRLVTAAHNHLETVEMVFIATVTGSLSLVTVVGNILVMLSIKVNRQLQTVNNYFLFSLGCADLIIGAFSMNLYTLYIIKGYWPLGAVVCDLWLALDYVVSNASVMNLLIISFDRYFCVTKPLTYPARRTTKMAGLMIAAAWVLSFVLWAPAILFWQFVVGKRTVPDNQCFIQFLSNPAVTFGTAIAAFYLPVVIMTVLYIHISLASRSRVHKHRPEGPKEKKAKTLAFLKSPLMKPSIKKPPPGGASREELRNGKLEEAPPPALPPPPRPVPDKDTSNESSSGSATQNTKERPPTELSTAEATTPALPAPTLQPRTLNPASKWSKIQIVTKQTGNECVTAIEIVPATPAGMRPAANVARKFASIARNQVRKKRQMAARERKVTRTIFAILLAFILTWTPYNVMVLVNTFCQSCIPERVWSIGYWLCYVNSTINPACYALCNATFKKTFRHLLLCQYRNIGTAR
Protocol: as §1, §2

[7] = 3H-QNB-Binding KH2 (c), Table 5
[8] = 3H-QNB-Binding KL2 (d), Table 5
[9] = with Cu++ pretreatment (100 µM, 30 minutes)
[10] = with Cu++ pretreatment (100 µM, 30 minutes), read-out: KL
[11] = without pretreatment, read-out: KH
[12] = without pretreatment, read-out: KL

SMILES | Ki (M2 muscarinic receptors; [7]) [µM] | Ki (M2 muscarinic receptors; 3H-QNB-Binding KH (c), Table 4) [µM] | Ki (M2 muscarinic receptors; [8]) [µM] | Ki (M2 muscarinic receptors; 3H-QNB-Binding KL (d), Table 4) [µM] | RATIOS d:c (M2 muscarinic receptors) | % H (M2 muscarinic receptors; Table 4) [%] | %L (M2 muscarinic receptors; Table 4) [%] | % H2 (M2 muscarinic receptors; Table 5) [%] | % L2 (M2 muscarinic receptors; Table 5) [%] | RATIOS c:a (M1 muscarinic receptor [1]) | RATIOS b:a (M1 muscarinic receptor [1]) | RATIOS d:b (M1 muscarinic receptor [1]) | % H1 (M1 muscarinic receptor [1]) [%] | % L1 (M1 muscarinic receptor [1]) [%] | % H (M1 muscarinic receptor [4]) [%] | Ki (M1 muscarinic receptor [4]; 3H-PZ-Binding KH (a)) [µM] | RATIOS c:a (M1 muscarinic receptor [4]) | %H (% of high affinity state) (muscarinic receptors; [9]) [%] | Ki (muscarinic receptors; [10]) [µM] | %H (% of high affinity state) (muscarinic receptors; without pretreatment) [%] | also measured
C[N+](C)(C)CC#CCN1CCCC1=O [Oxotremorine-M, reference compound] | 0.069 | 0.069 | 5.2 | 5.2 | 75 | 49 | 51 | 49 | 51 | 0.6 | 336 | 0.14 | 26 | 74 | 53 | 0.1 | 0.69 |  |  |  | accumulation of inositol-1-phosphate (IP1) stimulated over basal level [2]: 5.24 fold; % H (M1 muscarinic receptor [3]; +G (0.1 mM GppNHp)): 2.7%; %L (M1 muscarinic receptor [3]; +G (0.1 mM GppNHp)): 73%; % H (M1 muscarinic receptor [3]; -G): 53%; %L (M1 muscarinic receptor [3]; -G): 47%; Ki (M1 muscarinic receptor [3]; KH, +G (0.1 mM GppNHp)): 0.35 µM; Ki (M1 muscarinic receptor [3]; KH, -G (without GppNHp)): 0.11 µM; Ki (M1 muscarinic receptor [3]; KL, +G (0.1 mM GppNHp)): 4.2 µM; Ki (M1 muscarinic receptor [3]; KL, -G): 6.7 µM; KL-G / KH-G (M1 muscarinic receptor [3]; ratio of low and high affinities without GppNHp): 61; %L (M1 muscarinic receptor [4]): 47%; RATIOS b:a (M1 muscarinic receptor [4]): 67; Ki (M1 muscarinic receptor [4]; 3H-PZ-Binding KL (b)): 6.7 µM; RATIOS d:b (M1 muscarinic receptor [4]; KL cerebellum (3H-QNB) : KL cortex (3H-PZ)): 0.78
CC1=NCC2(CCN(C)CC2)S1 [AF150(S), 2-Methyl-spiro(1,3-thiazoline-5,4')-1'-methylpiperidine] |  |  |  |  |  |  |  |  |  |  |  |  |  |  |  |  |  |  |  |  | PI, % of carbachol effect (m1 receptors): 17%; PI (phosphoinositides hydrolysis) (m1 receptors; tested at 1mM): +
O=C1CCCN1CC#CCN1CCCC1 [Oxotremorine] | 0.014 | 0.014 | 0.58 | 0.58 | 41 | 35 | 65 | 35 | 65 | 0.9 | 100 | 0.36 | 13 | 87 |  |  |  | 51 | 7.2 ± 1.7 | 32 | %H (% of high affinity state) (muscarinic receptors; with Cu++ pretreatment (100 µM, 30 minutes), listed as 3): 51±7%; %H (% of high affinity state) (muscarinic receptors; without pretreatment, listed as 3): 32±3%; Ki (muscarinic receptors; [11]): 0.02 ± 0.005 µM; Ki (muscarinic receptors; [12]): 13.3 ± 1.4 µM; K+-evoked 3H-ACh release [5]: 56%
C[N+](C)(C)CCOC(N)=O [Carbachol, reference compound] |  |  |  |  |  |  |  |  |  |  |  |  |  |  |  |  |  |  |  |  | AC (adenylate cyclase activity) [6]: +++
C[N+](C)(C)CC#CCOC(=O)Nc1cccc(Cl)c1 [McN-A-343] | 11 |  |  |  |  | 100 |  | 100 |  | 1.9 |  |  | 100 |  | 100 | 3.8 | 6.4 | 30±7 | 5.7 ± 0.2 | 13±5 | Ki (M2 muscarinic receptors; Table 4, read-out: 3H-QNB-Binding KH (c)): 24.4 µM; Ki (muscarinic receptors; with Cu++ pretreatment (100 µM, 30 minutes), read-out: KH): 0.18 ± 0.09 µM; Ki (muscarinic receptors; [11]): 0.34 ± 0.1 µM; Ki (muscarinic receptors; [12]): 8.5 ± 0.8 µM; Basal 3H-ACh release [5]: 144%; K+-evoked 3H-ACh release [5]: 172%
